US20240425464A1, “Substituted Monohydrazides as Potent Antifungal Agents” (University of Kentucky Research Foundation, priority 2023, published 2024)
≈ marks a conversion by molar mass, not a printed value. Where two headings read alike, the source gives them in different places.

Key:
Assay in all cases: MIC determination by in vitro antifungal assay
Assay type in all cases: cell-based
[1] = test system: Candida krusei ATCC 6258 (I)
Description: (§1) 10 mg/mL stock solutions of compounds 1a-9j were prepared in dimethyl sulfoxide (DMSO) and were stored at −20° C. in the dark. The antifungal agent amphotericin B (AmB) was purchased from VWR (Radnor PA, USA). AmB was dissolved in DMSO at a final concentration of 5 mg/mL and was stored at −20° C., protected from light. Candida albicans American Type Culture Collection (ATCC) 10231 (strain A), C. albicans ATCC 64124 (B), and C. albicans ATCC MYA-2876 (C) were obtained from Utah State University. C. albicans ATCC 90819 (D), C. albicans ATCC MYA-2310 (E), C. albicans ATCC MYA-1237 (F), C. albicans ATCC MYA-1003 (G), Candida glabrata ATCC 2001 (H), Candida krusei ATCC 6258 (I), Candida parapsilosis ATCC 22019 (J), Cryptococcus neoformans ATCC MYA-895 (M), Aspergillus terreus ATCC MYA-3633 (N), and Aspergillus flavus ATCC MYA-3631 (0) were obtained from the American Type Culture Collection (ATCC; Manassas, VA, USA). Aspergillus nidulans ATCC 38163 (P) was obtained from University of Kentucky. Clinically derived Aspergillus fumigatus NRRL 163 (Q), A. fumigatus NRRL 5109 (R), and A. fumigatus NRRL 6113 (S) were obtained from Northern Regional Research Laboratory (NRRL). Candida auris 384 (K), C. auris 390 (L), and fungal strains 381-400 (including 10 C. auris (AR Bank #381-390), 3 Candida duobushaemulonii (AR Bank #391, AR Bank #392, and AR Bank #394), 2 Candida haemulonii (AR Bank #393 and AR Bank #395), 1 Kodameae ohmeri (AR Bank #396), 1 C. krusei (AR Bank #397), 1 Candida lusitaniae (AR Bank #398), and 2 Saccharomyces cerevisiae strains (AR Bank #399 and AR Bank #400)) were part of a larger fungal library from the AR Bank maintained by the Centers for Disease Control and Prevention (CDC; Atlanta, GA, USA). Filamentous fungi and yeasts were cultivated at 35° C. in RPMI 1640 medium (with L-glutamine, without sodium bicarbonate, Sigma-Aldrich, St. Louis, MO) buffered to a pH of 7.0 with 0.165 M morpholinepropanesulfonic acid (MOPS) buffer (Sigma-Aldrich). For cytotoxicity assays, HepG2 and the mouse macrophage cell line J774A.1 were obtained from University of Kentucky. The human embryonic kidney cell line, HEK-293, was bought from the ATCC. Mammalian cells were grown in Dulbecco's Modified Eagle's Medium (DMEM) (from VWR) with 10% fetal bovine serum (FBS) (from VWR) and 1% Pen/Strep (from ATCC). Cell lines were cultured at 37° C. with 5% CO2 and passaged by trypsinization with 0.05% trypsin: 0.53 mM EDTA (from Sigma-Aldrich).
(§2) The MIC values of compounds 1a-9j against yeast cells (strains A-P and 381-400) were determined in 96-well plates as described in the CLSI documents M27-A3 and M38-A2 with minor modifications.^2 A single colony of freshly prepared yeast cells was used to inoculate 5 mL of yeast extract peptone dextrose (YPD) broth prior to incubation overnight with shaking at 200 rpm at 35° C. From the actively growing yeast culture, 100 µL were then transferred to 900 μL of RPMI 1640 medium and re-adjusted to achieve OD600 of 0.12 (˜1×10^6 CFU/mL). The cell suspension was further diluted to achieve 1:100 in RPMI 1640 medium. 100 μL of cells were added to the wells of a 96-well microtiter plates that contained 100 µL of the compound solution to obtain concentrations of 0.06-31.3 μg/mL of compounds 1a-9j or AmB prior to incubation for 48 h at 35° C. […]

[2] = test system: Candida glabrata ATCC 2001 (H); settings: ATCC 2001 in text
Description: as §1, §2

[3] = test system: Candida parapsilosis ATCC 22019 (J)
Description: as §1, §2

[4] = test system: Cryptococcus neoformans ATCC MYA-895 (M); settings: strain M = C. neoformans ATCC MYA-895
Description: as §1
(§3) The MIC values of compounds 1a-9j against yeast cells (strains A-P and 381-400) were determined in 96-well plates as described in the CLSI documents M27-A3 and M38-A2 with minor modifications.^2 A single colony of freshly prepared yeast cells was used to inoculate 5 mL of yeast extract peptone dextrose (YPD) broth prior to incubation overnight with shaking at 200 rpm at 35° C. From the actively growing yeast culture, 100 µL were then transferred to 900 μL of RPMI 1640 medium and re-adjusted to achieve OD600 of 0.12 (˜1×10^6 CFU/mL). The cell suspension was further diluted to achieve 1:100 in RPMI 1640 medium. 100 μL of cells were added to the wells of a 96-well microtiter plates that contained 100 µL of the compound solution to obtain concentrations of 0.06-31.3 μg/mL of compounds 1a-9j or AmB prior to incubation for 48 h at 35° C.
(§4) Finally, the activity of these monohydrazides was explored against […] non-Candida strains: Cryptococcus neoformans ATCC MYA-895 (M), Aspergillus terreus ATCC MYA-3633 (N), Aspergillus flavus ATCC MYA-3631 (O), Aspergillus nidulans ATCC 38163 (P), Aspergillus fumigatus NRRL 163 (Q), A. fumigatus NRRL 5109 (R), and A. fumigatus NRRL 6113 (S) (Tables 1A and 1B). The double dilution method was used with concentrations ranging from 0.06 to 31.3 j·tg mL^−1 for monohydrazides 1a-9j, and the commercially available positive antifungal control amphotericin B (AmB).

[5] = test system: Aspergillus nidulans ATCC 38163 (P)
Description: as §1, §3, §4

[6] = test system: Aspergillus terreus ATCC MYA-3633 (N); settings: strain N = A. terreus ATCC MYA-3633
Description: as §1, §3, §4

[7] = test system: Aspergillus flavus ATCC MYA-3631 (O); settings: strain O = A. flavus ATCC MYA-3631
Description: as §1, §3, §4

[8] = Pichia kudriavzevii, ATCC6258, strain I = C. krusei ATCC 6258, read-out: MIC
[9] = Nakaseomyces glabratus, ATCC 2001 / ATCC 2004, strain H = C. glabrata ATCC 2004 (footnote), read-out: MIC
[10] = Lodderomyces parapsilosis, ATCC22019, strain J = C. parapsilosis ATCC 22019, read-out: MIC
[11] = Cryptococcus neoformans, read-out: MIC
[12] = Aspergillus nidulans, ATCC38163, strain P = A. nidulans ATCC 38163, read-out: MIC
[13] = Aspergillus terreus, read-out: MIC
[14] = Aspergillus flavus, read-out: MIC
[15] = strain H = C. glabrata ATCC 2004 (footnote)
[16] = strain J = C. parapsilosis ATCC 22019
[17] = strain P = A. nidulans ATCC 38163

SMILES | MIC [1, 8] [µg/mL] | MIC [2, 9] [µg/mL] | MIC [3, 10] [µg/mL] | MIC [4, 11] [µg/mL] | MIC [5, 12] [µg/mL] | MIC [6, 13] [µg/mL] | MIC [7, 14] [µg/mL] | MIC ([1]; strain I = C. krusei ATCC 6258) [μg/mL^−1] | MIC [2, 15] [μg/mL^−1] | MIC [3, 16] [μg/mL^−1] | MIC [4] [μg/mL^−1] | MIC [5, 17] [μg/mL^−1] | MIC [6] [μg/mL^−1] | MIC [7] [μg/mL^−1]
O=C(NNc1ccc(F)cc1F)c1ccccn1 [Compound 2g] | 0.49 (≈ 1.97 µM) | 0.98 (≈ 3.93 µM) | 1.95 (≈ 7.82 µM) | 0.24 (≈ 0.963 µM) | 0.49 (≈ 1.97 µM) | 0.98 (≈ 3.93 µM) | 15.6 (≈ 62.6 µM) | – | – | – | – | – | – | –
O=C(NNc1cc(F)ccc1F)c1ccccn1 [Compound 2h] | 0.24 (≈ 0.963 µM) | 3.9 (≈ 15.6 µM) | 3.9 (≈ 15.6 µM) | 0.49 (≈ 1.97 µM) | 0.49 (≈ 1.97 µM) | 0.98 (≈ 3.93 µM) | 3.9 (≈ 15.6 µM) | – | – | – | – | – | – | –
O=C(NNc1cc(F)cc(F)c1)c1ccccn1 [Compound 2i] | 0.24 (≈ 0.963 µM) | 7.8 (≈ 31.3 µM) | 1.95 (≈ 7.82 µM) | 0.24 (≈ 0.963 µM) | 0.49 (≈ 1.97 µM) | 0.98 (≈ 3.93 µM) | 1.95 (≈ 7.82 µM) | – | – | – | – | – | – | –
O=C(NNc1cc(Cl)cc(Cl)c1)c1ccccn1 [Compound 2j] | 0.98 (≈ 3.47 µM) | 7.8 (≈ 27.6 µM) | 1.95 (≈ 6.91 µM) | 0.49 (≈ 1.74 µM) | 0.49 (≈ 1.74 µM) | 1.95 (≈ 6.91 µM) | > 31.3 | – | – | – | – | – | – | –
O=C(NNc1cccc(F)c1)c1ccc(F)cn1 [Compound 3a] | – | – | – | – | – | – | – | 0.24 | 31.3 | 1.95 | ≤0.06 | 0.98 | 1.95 | 7.8
O=C(NNc1ccc(F)cc1)c1ccc(F)cn1 [Compound 3d] | – | – | – | – | – | – | – | 0.49 | 15.6 | 3.9 | 0.98 | 0.98 | 3.9 | 15.6
O=C(NNc1ccc(Cl)cc1)c1ccc(F)cn1 [Compound 3e] | – | – | – | – | – | – | – | 0.98 | 7.8 | 31.3 | 3.9 | 15.6 | >31.3 | >31.3
COc1ccc(NNC(=O)c2ccc(F)cn2)cc1 [Compound 3f] | – | – | – | – | – | – | – | 0.24 | 1.95 | 3.9 | ≤0.06 | 1.95 | 31.3 | >31.3
O=C(NNc1ccc(F)cc1F)c1ccc(F)cn1 [Compound 3g] | 0.98 (≈ 3.67 µM) | 31.3 (≈ 117 µM) | 31.3 (≈ 117 µM) | 0.98 (≈ 3.67 µM) | 0.98 (≈ 3.67 µM) | 3.9 (≈ 14.6 µM) | 15.6 (≈ 58.4 µM) | – | – | – | – | – | – | –
O=C(NNc1cccc(F)c1)c1ccc(Br)cn1 [Compound 4a] | – | – | – | – | – | – | – | 0.24 | >31.3 | 7.8 | 0.06 | 1.95 | 0.98 | 15.6
COc1cccc(NNC(=O)c2ccc(Br)cn2)c1 [Compound 4c] | 0.24 (≈ 0.745 µM) | 15.6 (≈ 48.4 µM) | 3.9 (≈ 12.1 µM) | 0.49 (≈ 1.52 µM) | 1.95 (≈ 6.05 µM) | 3.9 (≈ 12.1 µM) | > 31.3 | – | – | – | – | – | – | –
O=C(NNc1ccc(F)cc1)c1ccc(Br)cn1 [Compound 4d] | 0.98 (≈ 3.16 µM) | > 31.3 | 7.8 (≈ 25.2 µM) | 0.98 (≈ 3.16 µM) | 1.95 (≈ 6.29 µM) | 7.8 (≈ 25.2 µM) | 15.6 (≈ 50.3 µM) | – | – | – | – | – | – | –
COc1ccc(NNC(=O)c2ccc(Br)cn2)cc1 [Compound 4f] | 0.98 (≈ 3.04 µM) | 1.95 (≈ 6.05 µM) | 3.9 (≈ 12.1 µM) | 1.95 (≈ 6.05 µM) | 15.6 (≈ 48.4 µM) | 7.8 (≈ 24.2 µM) | > 31.3 | – | – | – | – | – | – | –
O=C(NNc1ccc(F)cc1F)c1ccc(Br)cn1 [Compound 4g] | 0.49 (≈ 1.49 µM) | 7.8 (≈ 23.8 µM) | 3.9 (≈ 11.9 µM) | 1.95 (≈ 5.94 µM) | 3.9 (≈ 11.9 µM) | 3.9 (≈ 11.9 µM) | > 31.3 | – | – | – | – | – | – | –
O=C(NNc1cccc(F)c1)c1cccc(F)n1 [Compound 5a] | – | – | – | – | – | – | – | 0.24 | 31.3 | 7.8 | ≤0.06 | 0.98 | 1.95 | >31.3
O=C(NNc1ccc(F)cc1)c1cccc(F)n1 [Compound 5d] | 0.49 (≈ 1.97 µM) | 15.6 (≈ 62.6 µM) | 3.9 (≈ 15.6 µM) | 0.49 (≈ 1.97 µM) | 0.98 (≈ 3.93 µM) | 1.95 (≈ 7.82 µM) | 7.8 (≈ 31.3 µM) | – | – | – | – | – | – | –
O=C(NNc1ccc(Cl)cc1)c1cccc(F)n1 [Compound 5e] | – | – | – | – | – | – | – | 1.95 | 3.9 | 15.6 | 1.95 | 7.8 | 31.3 | >31.3
COc1ccc(NNC(=O)c2cccc(F)n2)cc1 [Compound 5f] | 0.49 (≈ 1.88 µM) | 0.98 (≈ 3.75 µM) | 7.8 (≈ 29.9 µM) | 0.24 (≈ 0.919 µM) | 1.95 (≈ 7.46 µM) | 15.6 (≈ 59.7 µM) | > 31.3 | – | – | – | – | – | – | –
O=C(NNc1ccc(F)cc1F)c1cccc(F)n1 [Compound 5g] | 0.98 (≈ 3.67 µM) | 31.3 (≈ 117 µM) | 31.3 (≈ 117 µM) | 0.49 (≈ 1.83 µM) | 0.49 (≈ 1.83 µM) | 3.9 (≈ 14.6 µM) | 31.3 (≈ 117 µM) | – | – | – | – | – | – | –
O=C(NNc1cccc(F)c1)c1cccc(Br)n1 [Compound 6a] | – | – | – | – | – | – | – | 0.49 | >31.3 | 1.95 | ≤0.06 | 1.95 | 3.9 | 31.3
